Results published in paper PMC10530652 (BME Frontiers, 2021).

Assays:
[1] = tested on: Crl:WI(Han) rats; assay: Single intratracheal administration toxicity study of AZD1236; format: in vivo, rat; conditions: 35 µg/animal (70 µg/mL)
Procedure: Assessment of toxicity of AZD1236 was based on clinical signs, body weight, food consumption, clinical and anatomic pathology evaluations. Complete necropsies were performed on all animals with a recording of macroscopic abnormalities for all tissues. Organ weights and microscopic examinations were conducted as indicated.

[2] = tested on: MMP-12; conditions: placebo-controlled, 55 COPD patients; cited from earlier work
From the text: (§1) MMP inhibition has been identified as a target for drug interventions in inflammatory diseases. MMP inhibitors used in trials as cancer therapies were disappointing due to lack of efficacy and significant adverse effects. Studies have also been limited by a lack of quantifiable biomarkers to reflect on their in vivo and functional activity. […] It had previously been used in a phase 2A safety and tolerab ...

[3] = biological target: T1, MMP-9 (Homo sapiens, UniProt P14780); conditions: placebo-controlled, 55 COPD patients; cited from earlier work
T1 construct: recombinant MMPs (Enzo Life Sciences) (active domains of MMP-1, MMP-2, MMP-3, MMP-7, MMP-8, MMP-9, MMP-10, MMP-11, MMP-12, and MMP-13); purchased Enzo Life Sciences
From the text: as §1

[4] = tested on: emphysema patients; conditions: 74 emphysema patients, placebo or AZD1236 75 mg twice daily for 6 weeks; cited from earlier work
From the text: as §1

[5] = tested on: stimulated human neutrophils; assay: FIB One cleavage in supernatant from stimulated neutrophils; format: cell-based; conditions: FIB One 1 μM, 10 min incubation with neutrophil supernatant
Procedure: Neutrophils were isolated from the blood of healthy human volunteers as previously described. The number of retrieved neutrophils was determined with NucleoCounter NC-1000 (Chemo Metec). Neutrophils were resuspended at a concentration of 20×10^6 mL^-1 in 0.9% NaCl with 0.9 mM CaCl2. Cells were incubated for 30 min at 37°C. Cells to be stimulated were subsequently activated with 5 μM calcium ionophore A23187 (Tocris Bioscience) for 30 min at 37°C. Neutrophils were harvested by centrifugation at 400 x g for 5 min. Supernatants were removed and stored. Plate reader assays were performed as described above, with the MMP buffer replaced with neutrophil supernatant. All experiments were carried out in duplicate using three independent donors (one donor per independent repeat). Data were normalised by background subtraction of intrinsic fluorescence.

[6] = tested on: primary human lung tissue; assay: Ex vivo fibre-based (FCFM) imaging of human lung tissue with FIB One; conditions: FIB One 1 μM, imaged 10 min, FCFM 488 nm excitation, n=9
Procedure: Human lung tissue samples (lung tumour and noncancerous adjacent tissue) were obtained following surgical resection and stored at -80° C until use. Processing for multiwell plate reader assay or zymography analysis was conducted as follows: 1 mm×4 mm sections were homogenised in 400 μL MMP buffer in Precellys 2.8 mm ceramic bead tubes (VWR) using a Pecellys 24 homogeniser. Homogenised tissue was adjusted to 4 mg mL^-1 protein (determined by a Pierce BCA Total Protein Assay Kit (Thermo Fisher Scientific), following the manufacturer’s instructions). Multiwell plate reader assays were performed as previously described, replacing the MMP buffer and MMP enzymes for the homogenised and protein-adjusted lung tissue.
For ex vivo imaging, human lung tissue was sliced into 1 mm×4 mm sections and placed in the wells of a 96-well plate with 100 μL of MMP buffer and 30 nM MMP-13. […] The fluorescence for each sample was calculated by determining the average fluorescence per frame for each time point. […] Five independent patient specimens were collected and analysed. RFUs collected from off-target frames (showing motion artefact or absence of any fluorescence) were omitted during analysis.

[7] = tested on: MMP activity in ex vivo ventilated ovine lung; assay: Ex vivo ovine lung model instilled with OPA supernatant, FCFM imaging; conditions: 5 μM FIB One in 1 mL, OPA supernatant-instilled segments, n=3
Procedure: Ovine pulmonary adenocarcinoma (OPA) tissue was homogenised using a drill homogeniser, followed by lysis in cell lysis buffer. The supernatant was collected following centrifugation at 12,000 rpm for 20 min. The samples were adjusted to 1 mg mL^-1 total protein (determined by a Pierce BCA Total Protein Assay Kit (Thermo Fisher Scientific)). Zymography (as described above) was performed to confirm MMP activity across multiple OPA samples. Recombinant MMP-9 (2 nM) and recombinant pro-MMP-9 (0.5 nM) were included in the assay as positive controls. […] Following >30 min, the segments were bronchoscopically identified and microdosed with 5 μM FIB One in 1 mL. FCFM imaging was undertaken pre- and postinstillation (Cellvizio®, Mauna Kea Technologies). This was performed by passing a FCFM fibre into the disparate bronchopulmonary segments (up to 5 passes per bronchopulmonary segment to capture a regional representation of fluorescence), recording images at 12 frames per second and imaging for up to 5 minutes. Videos were analysed as described above. Each experimental set was normalised to the control segment (segment with 1 mL 0.9% NaCl instilled) which represents intrinsic autofluorescence.

[8] = tested on: erythrocyte; assay: Erythrocyte hemolysis; format: cell-based
[9] = tested on: Salmonella typhimurium strain TA98; assay: Reduced test article AMES test, TA98; format: cell-based; conditions: up to 250 μg/well, in the absence and presence of rat liver S-9
Procedure: These conditions included treatments at concentrations up to 250 μg/well (a 20-fold pro rata reduction from the standard regulatory Ames assay maximum concentration), in the absence and in the presence of a rat liver metabolic activation system (S-9).

T1 sequence (P14780 107-444 limits assumed): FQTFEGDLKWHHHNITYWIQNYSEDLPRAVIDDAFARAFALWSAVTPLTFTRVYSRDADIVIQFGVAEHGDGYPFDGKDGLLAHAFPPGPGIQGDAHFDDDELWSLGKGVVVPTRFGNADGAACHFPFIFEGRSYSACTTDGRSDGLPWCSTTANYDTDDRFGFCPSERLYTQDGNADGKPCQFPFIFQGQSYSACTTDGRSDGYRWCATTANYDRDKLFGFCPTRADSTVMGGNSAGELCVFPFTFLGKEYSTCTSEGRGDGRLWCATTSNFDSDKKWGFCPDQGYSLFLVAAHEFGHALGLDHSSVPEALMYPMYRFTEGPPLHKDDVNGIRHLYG

Substance	deaths, clinical signs, body weight, food consumption, clinical or anatomic pathology [1]	tolerability, acute or delayed toxicity [1]	MMP-12 inhibition in induced sputum [2]	MMP-9 inhibition in induced sputum [3]	effect on the secondary lung physiology endpoints [4]	cleavage of FIB One [5]	cleavage of FIB One [6]	FIB One fluorescence in segments with high MMP activity [7]	erythrocyte hemolysis [8]	mutation induction [9]
AZD1236	no deaths, no adverse clinical signs and no effects of treatment	well tolerated with no evidence of acute or delayed toxicity	failed to demonstrate	failed to demonstrate	no effect					
(Pro-Phe-Gly-Nle-Lys-βAla)3 [FIB One]						cleaved	cleaved	diffuse pattern of increased fluorescence	absence of erythrocyte hemolysis	did not induce mutation
